Test results from US11045520B2, “Compositions and methods for topical delivery of pharmaceutical agents” (priority 2016, dated 2021).

How the values were obtained:
[1] = tested on: human skin; assay: Franz cell diffusion apparatus assay, ETA-treated vs control skin (Example 3); format: in vitro ADME; details: ETA-treated human skin compared to non-treated control, 24 hours
Method: Permeation experiments with Franz diffusion cells were performed using human skin. The Franz diffusion cells were made of glass with a contact area of 1.35 cm^2, consisting of a donor compartment and a receptor compartment. The skin was mounted between the cell compartments and 2 O-ring shaped glasses were used to position the skin epidermis side-up and dermis side-down. The two cell compartments were held together with a clamp. […] It was kept at 37° C. on a heated plate. After 30 minutes of equilibration of the skin with the receptor solution, 200 μl of the drug solution was applied in the donor compartment with a pipet. The donor compartment was then covered with parafilm to prevent evaporation of the solvent. The receptor solution was continuously stirred using a spinning bar magnet at 200 rpm. Receptor solution samples, 0.2 ml aliquots, were withdrawn through the sampling port of the receptor compartment at various time intervals. The cells were refilled with a same amount of receptor solution to keep the volume of receptor solution constant during the experiment. The experiments were run for 24 hours. The fluorescent intensities collected from receptor compartments from normal and desquamated skin were compared over time using a spectrophotometer. […]

[2] = tested on: human skin explants; details: cited from earlier work

O=C1OC2(c3ccc(O)cc3Oc3cc(O)ccc32)c2ccccc21 [fluorescein]
skin permeability, fluorescence in receptor compartment [1]: increase in skin permeability

C=C[C@@]1(C)CC(=O)[C@]2(O)[C@@]3(C)[C@@H](O)CCC(C)(C)[C@@H]3[C@H](O)[C@H](OC(C)=O)[C@@]2(C)O1 [Forskolin]
penetration of intact human skin [2]: cannot, however, penetrate intact human skin
